Assay results: PubChem BioAssay AID602284 (Broad Institute, 2012)
Activity calls are given as the source filed them.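 The calls were made as follows: active = every test run fits a half-maximal inhibitory dose no higher than twice its top dose tested; inconclusive = runs disagree, flat partial inhibition, or poor curve fit; inactive = the rest.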

Target: Cyclin-dependent kinase 5 activator 1 (Homo sapiens) + Cyclin-dependent kinase 5 (Homo sapiens) (UniProt Q15078+Q00535)
Assay: CDK5/p35 kinase inhibitors, dose response, biochemical, ADP-Glo luminescence, dry powder samples (AID 602284)
Conditions: histone H1 peptide

Sequence of Cyclin-dependent kinase 5 activator 1 (Homo sapiens) + Cyclin-dependent kinase 5 (Homo sapiens) (Q00535 whole entry, looked up): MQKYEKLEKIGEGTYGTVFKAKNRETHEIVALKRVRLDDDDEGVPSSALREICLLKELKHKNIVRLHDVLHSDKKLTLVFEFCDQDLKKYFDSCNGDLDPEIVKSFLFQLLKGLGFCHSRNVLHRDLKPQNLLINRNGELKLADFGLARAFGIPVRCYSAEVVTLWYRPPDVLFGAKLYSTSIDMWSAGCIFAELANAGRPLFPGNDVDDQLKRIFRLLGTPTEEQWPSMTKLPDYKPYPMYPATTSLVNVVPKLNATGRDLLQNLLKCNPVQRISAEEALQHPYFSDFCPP
Sequence of Cyclin-dependent kinase 5 activator 1 (Homo sapiens) + Cyclin-dependent kinase 5 (Homo sapiens) (Q15078 whole entry, looked up): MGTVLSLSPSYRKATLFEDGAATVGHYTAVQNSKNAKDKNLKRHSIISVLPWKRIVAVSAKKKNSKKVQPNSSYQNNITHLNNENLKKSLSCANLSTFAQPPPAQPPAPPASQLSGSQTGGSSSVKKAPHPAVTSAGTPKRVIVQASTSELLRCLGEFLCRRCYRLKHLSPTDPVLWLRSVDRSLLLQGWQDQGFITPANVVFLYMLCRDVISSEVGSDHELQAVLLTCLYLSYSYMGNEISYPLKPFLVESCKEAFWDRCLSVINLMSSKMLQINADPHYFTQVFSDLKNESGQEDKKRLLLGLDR

Row | SMILES | activity change, negative = inhibition (at 30 µM (top of the series)) | further results
1 | N#Cc1ccc(N2CCN(C(=O)c3ccc(Cl)cc3)CC2)nc1 | inactive | –
2 | CCCn1c(NC(=O)c2cccc(S(=O)(=O)N(CC)CC)c2)nc2ccccc21 | – | AC50: 2.95 µM
3 | COc1ccnc(N2CCN(C(=O)c3ccc(Cl)cc3)CC2)c1 | inactive | –
4 | COCCC(=O)N1CCN(c2ccccn2)CC1 | inactive | –
5 | COc1cc(C(=O)N2CCN(c3ccccc3)CC2)cc(OC)c1OC | inactive | –
6 | CCCCC(=O)N1CCN(c2ccccn2)CC1 | inactive | –
7 | CCCn1c(NC(=O)c2ccc(OC)c(S(=O)(=O)N3CCCC3)c2)nc2ccccc21 | inactive | –
8 | CCCn1c(NC(=O)c2ccc(Cl)c(S(=O)(=O)N3CCCC3)c2)nc2ccccc21 | inactive | –
9 | COc1ccc(C(=O)N2CCN(c3ccccn3)CC2)cc1 | inactive | –
10 | N#Cc1ccc(C(=O)N2CCN(c3ccccn3)CC2)cc1 | inactive | –
11 | Cc1ccc(C(=O)N2CCN(c3ccccn3)CC2)cc1 | inactive | –
12 | O=C(c1ccc(Cl)cc1)N1CCN(c2ccccn2)CC1 | inactive | –
13 | Cc1ccc(N2CCN(C(=O)c3ccc(Cl)cc3)CC2)nc1 | inactive | –
14 | c1ccc(N2CCNCC2)nc1 | – | activity change, negative = inhibition (at 0.38 µM (top of the series)): inactive
15 | N#Cc1cccnc1N1CCN(C(=O)c2ccc(Cl)cc2)CC1 | inactive | –
16 | Cc1ccnc(N2CCN(C(=O)c3ccc(Cl)cc3)CC2)c1 | inactive | –
17 | O=C(c1ccc(Cl)cc1)N1CCN(c2cccc(C(F)(F)F)n2)CC1 | inactive | –

Row | SMILES | activity change, negative = inhibition (at 30 µM (top of the series)) | further results
18 | CC(C)C(=O)N1CCN(c2ccccn2)CC1 | inactive | –
19 | O=C(c1ccc(F)cc1)N1CCN(c2ccccn2)CC1 | inactive | –
20 | CCCn1c(NC(=O)c2cccc(S(=O)(=O)N(C)C)c2)nc2ccccc21 | – | AC50: 10.2 µM
21 | Cc1cccc(N2CCN(C(=O)c3ccc(Cl)cc3)CC2)n1 | inactive | –
22 | O=C(C1CCCCC1)N1CCN(c2ccccn2)CC1 | inactive | –
23 | COc1cccc(C(=O)N2CCN(c3ccccn3)CC2)c1 | inactive | –
24 | CCOc1cc(C(=O)N2CCN(c3ccccn3)CC2)cc(OCC)c1OCC | inactive | –
25 | CC(C)(C)n1c(NC(=O)c2cccc(S(C)(=O)=O)c2)nc2ccccc21 | – | AC50: 12.3 µM
26 | O=C(c1ccccc1Cl)N1CCN(c2ccccn2)CC1 | inactive | –
27 | COc1cccnc1N1CCN(C(=O)c2ccc(Cl)cc2)CC1 | inactive | –
28 | CCn1c(NC(=O)c2cccc(S(=O)(=O)NC)c2)nc2ccccc21 | – | AC50: 29.1 µM
29 | CCCn1c(NC(=O)c2cccc(S(=O)(=O)N3CCCCC3)c2)nc2ccccc21 | – | AC50: 13.5 µM
30 | O=C(c1ccc(Cl)cc1)N1CCN(c2ncccc2C(F)(F)F)CC1 | inactive | –
31 | O=C(c1ccccc1)N1CCN(c2ccccn2)CC1 | – | activity change, negative = inhibition (at 10 µM (top of the series)): inactive
32 | O=C(c1cccc(Cl)c1)N1CCN(c2ccccn2)CC1 | inactive | –
33 | O=C(c1ccc(Cl)cc1)N1CCN(c2ccc(C(F)(F)F)cn2)CC1 | inactive | –
34 | COc1cc(C(=O)N2CCN(c3ccccn3)CC2)cc(OC)c1OC | inactive | –
